The subject of assay [1] is pooled normal human plasma. The assay can be described thus: Ex vivo coagulation assay (APTT). Conditions: normal citrated human plasma; FIG. 3. How it is done:
Fresh frozen pooled normal human plasma was obtained from George King Biomedical, Overland Park, KA. Measurements APTT was made using the Coag-A-Mate RA4 automated coagulometer (General Diagnostics, Organon Technica, Oklahoma City, OK) using the Automated APTT reagent (Organon Technica, Durham, NC) as the initiator of clotting according to the manufacturers instructions. The assay was conducted by making a series of dilutions of the test compounds in rapidly thawed plasma followed by adding 200 μL to the wells of the assay carousel.

In the next assay the target is α-thrombin (Homo sapiens, UniProt P00734). Put plainly: Amidolytic thrombin assay (inhibition constant Ki). The class given is biochemical. How it is done:
The ability of the compounds of the present invention to act as inhibitors of thrombin catalytic activity in comparison to Hirulog-1 (compound 25) was assessed by determining their inhibition constant, Ki.
Enzyme activity was determined using the chromogenic substrate Pefachrome t-PA (CH3 SO2 -D-hexahydrotyrosine-glycyl-L-arginine-p-nitroaniline, obtained from Pentapharm Ltd.). The substrate was reconstituted in deionized water prior to use.
Ki values were determined for test compounds using the following methodologies:
The assay was conducted by combining in appropriate wells of a Corning microtiter plate, 50 μL of HBSA, 50 μL of the test compound at a specified concentration diluted in HBSA (or HBSA alone for Vo(uninhibited velocity) measurement), and 50 μL of the chromogenic substrate diluted in HBSA. At time zero, 50 μL of α-thrombin diluted in HBSA, was added to the wells yielding a final concentration of 0.25 nM in a total volume of 200 μL. Velocities of Pefachrome-tPA substrate hydrolysis which occurred over a 40 minute time period was measured by the change in absorbance at 405 nm using a Thermo Max® Kinetic Microplate Reader. […] The linear relationship between kobs and inhibitor concentration is indicative of a competitive, one step mechanism and was used to calculate kon and koff which yielded a value for Ki after taking into consideration the concentration and Km (38.5 μM) of the substrate in the assay.
The initial velocity of Pefachrome t-PA hydrolysis was measured by the change in absorbance at 405 nm using a Thermo Max® Kinetic Microplate Reader over a 2 minute period in which less than 5% of the added substrate was utilized. The relationship between the ratio of the inhibited steady-state velocity (Vs) and the uninhibited velocity (Vo) to the concentration of inhibitor [It ], was analyzed using Equation 1 developed by Morrison , J. F., Biochim. Biophys. Acta, 185:269 (1969) for inhibitors which deplete a significant amount of the total enzyme (Et) over the course of the assay (designated tight binding inhibitors):
Vs/Vo={([Et ]-[It ]-Ki*)+[([It ]+Ki*-[Et ])^2
Ki* was determined by fitting Vs/Vo verses [I] using Equation 1 by non-linear regression analysis.
The best fit of the data for both compounds was to the equation describing competitive inhibition.

For orientation: Ki means the equilibrium dissociation constant of an inhibitor or competing ligand from its target. Take “(D--Phe)--Pro--Arg--Pro--(Gly4 --Asn--Gly--Asp--Phe--Glu--Glu--IIe--Pro--Glu--Glu--Tyr--Leu--OH [Compound 25]”: the “prolongation of activated partial thromboplastin time (APTT)” value in assay [1] is “prolonged the APTT in a dose dependent manner”. The same substance yielded an inhibition constant Ki at α-thrombin (chromogenic substrate Pefachrome t-PA, HBSA pH 7.5, slow-binding (kon/koff) or Dixon analysis) of 0.437 nM. In addition, the “kinetics / mechanism of thrombin inhibition” value at α-thrombin (in words) is “rapid, reversible kinetics of inhibition”.

These data come from patent US5656600A, “α-ketoamide derivatives as inhibitors of thrombosis” (Corvas International, Inc., priority 1993, dated 1997).
